Key:
[1] = system: peritoneal macrophages and T-cells; assay: Cytokine array, pretreated peritoneal macrophages mixed with T-cells; assay type: cell-based, mouse
Text: To investigate whether the effect of iTEAD treatment on macrophages can enhance their crosstalk with T-cells in the lung microenvironment, peritoneal macrophages+/−iTEAD were first isolated and characterized as a model of resident macrophages for ex vivo experiments (FIG. 14, Panel A). It was observed that treatment with VT107 decreased gene expression of M2-like and fibrosis regulators, Aldh1a1 and Cc117 (Chen et al., 2020), as well as TEAD4 and its downstream target gene Ankrd1. […] The iTEAD pretreated peritoneal macrophages and untreated T-cells isolated from the spleen of tumor naïve mice (FIG. 14, Panel A) were then mixed for 5 hours before collecting the conditioned media for analysis. […] Next, these immune cell mixes were added to 4T1 spheres that were embedded into matrix. […] This effect was reversed by an IL12 neutralizing antibody. No change in cleaved caspase-3 in 4T1 cells in the presence of VT107-treated T-cells or macrophages alone, was detected at 24 hours (FIG. 14, Panels C and D). 4T1 cells were then plated and allowed to attach on electrode-coated arrays to monitor cancer cell viability before the addition of macrophages+/−iTEAD and T-cells. […] This reversal of T-cell cytotoxicity by IL12 antibodies was not observed in VT107-treated T-cells in the absence of macrophages (FIG. 15, Panel E) indicating a critical role for IL12 in the crosstalk between macrophages and T-cells.
Cells were grown in their recommended cell culture media and treated with […] VT107 for 24 or 72 hours. Conditioned media was collected and passed through a 0.2 micron PES filter then analyzed on a RayBio® Mouse Cytokine Array (#AAM-TCR-1) according to the manufacture's protocol. The array includes two spots for each cytokine. The luminescence signal was normalized to the positive control on each membrane, then to the vehicle treatment signal of each cytokine.

T-cells = assay: Degranulation assay of T-cells co-cultured with 4T1 cells; assay type: cell-based, BALB/c mice
Procedure: The hippo pathway has been implicated in T-cell development and function (Du et al., 2014; Ueda et al., 2012). For example, YAP expression is essential for tumor immune suppression by Treg cells that attenuates CD8 T-cell immunity (Geng et al., 2017; Ni et al., 2018; Lebid et al., 2020). […] To investigate whether VT107 directly affected T-cells, T-cells treated with VT107 were co-cultured with 4T1 cells in 2D for 72 hours. […] To further confirm T-cell activation upon TEAD activity reduction, we used Jurkat cells, a CD4 positive human lymphoma cell line (Schneider et al., 1977). […] However, here we show the specific effect of TEAD reduction on granzyme gene expression and degranulation that result in the killing of cancer cells.
T-cells were isolated from the spleens of naïve BALB/c as described above and treated in vitro with DMSO control or VT107 for 24 hours. T-cells were then co-cultured with 4T1 cells with the same treatment conditions. After 72 hours, all cells were collected and subdued to flow cytometry using anti-CD45-AF700 (Biolegend, 103128), anti-CD8-BV785 (Biolegend, 100750), anti-CD4-Pacific Blue (Biolegend, 116007), anti-CD107a-PE/Cy7 (Biolegend, 121620), and Helix NP Blue (Biolegend, 425305). Analysis was performed on the BD FACSymphony Δ3 flow cytometer analyzer, and results were analyzed using FCS Express 7 Research (De Novo Software).

[2] = macrophages pretreated 24 hrs with 1 μM VT107, mixed with untreated T-cells 5 hours
[3] = treated overnight with 1 μM VT107

Substance: VT107
- IL6 level in the cell mix [1, 2]: significantly increased
- IL12 level in the cell mix [1, 2]: significantly increased
- IL4 in T-cells [1, 3]: slightly increased
- IL12 or IL6 levels in macrophages or T-cells alone [1, 3]: No significant change
- T-cell degranulation marker CD107a (T-cells; 1 μM VT107, co-culture with 4T1 cells 72 hours, flow cytometry): significantly increased
- IFNγ levels (T-cells; T-cells treated with VT107, co-cultured with 4T1 cells in 2D for 72 hours): no change
